# Columns and labels:
# [1] = biological target: T1, human adenosine receptor A1 (A1R) (Homo sapiens, UniProt P30542); assay: Adenosine receptor binding assay, radioligand competitive binding, [3H]DPCPX; conditions: membrane homogenates from CHO cells transfected with A1R, 1 nM [3H]DPCPX
# T1 construct: host or cells: CHO cells (membrane homogenates)
# T1 sequence (P30542 1-326): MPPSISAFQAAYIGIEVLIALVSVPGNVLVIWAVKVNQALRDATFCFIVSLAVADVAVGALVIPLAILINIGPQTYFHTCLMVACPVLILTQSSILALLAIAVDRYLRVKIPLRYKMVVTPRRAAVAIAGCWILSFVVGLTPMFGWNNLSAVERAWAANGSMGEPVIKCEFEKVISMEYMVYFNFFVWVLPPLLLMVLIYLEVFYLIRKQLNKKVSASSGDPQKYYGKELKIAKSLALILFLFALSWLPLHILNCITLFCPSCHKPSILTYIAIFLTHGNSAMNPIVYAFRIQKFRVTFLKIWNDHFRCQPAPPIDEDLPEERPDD
# Description: (§1) Binding affinity of test compounds to four human adenosine receptors, A1, A2A, A2B and A3 was determined in radioligand competitive binding assay (conducted by Cerep, France) using following protocols. For A1 receptor (A1R), membrane homogenates from CHO cells transfected with A1R were incubated for 60 min at 22° C. with 1 nM [3H]DPCPX in the absence or presence of the test compound in a buffer containing 50 mM Tris-HCl (pH 7.4), 5 mM MgCl2, 1 mM EDTA/Tris and 2 UI/mL ADA. For A2AR, membrane homogenates from HEK293 cells transfected with A2AR were incubated for 120 min at 22° C. with 6 nM [3H]CGS21680 in the absence or presence of the test compound in a buffer containing 50 mM Tris-HCl (pH 7.4), 10 mM MgCl2, and 2 UI/mL ADA. For A2B receptor (A2BR), membrane homogenates from HEK293 cells transfected with A2BR were incubated for 60 min at 22° C. with 5 nM [3H]CPX in the absence or presence of the test compound in a buffer containing 10 mM Hepes/Tris (pH 7), 1 mM MgCl2, and 1 mM EDTA. For A3 receptor (A3R), membrane homogenates from HEK293 cells transfected with A3R were incubated for 120 min at 22° C. with 0.15 nM [125I]AB-MECA in the absence or presence of the test compound in a buffer containing 50 mM Tris-HCl (pH 7.4), 5 mM MgCl2, 1 mM EDTA and 2 UI/mL ADA. Nonspecific binding was determined in the presence of unlabeled 1 μM DPCPX, 10 μM NECA, 100 μM NECA, and 1 μM IB-MECA in A1R, A2AR, A2BR, A3R binding assays, respectively. Following incubation, the samples are rapidly filtered and washed with ice-cold 50 mM Tris-HCl. Then filters are dried and counted for radioactivity in a scintillation counter (Topcount, Packard) using a scintillation cocktail (Microscint 0, Packard). Duplicate experiments were performed for each assay. The results are expressed as a percent inhibition of control radioligand specific binding.
# [2] = biological target: human A2A receptor (A2AR) (Homo sapiens, UniProt P29274); assay: Luciferase reporter assay (HEK293-A2AR-luc2p/CRE/Hygro cells, 3 nM CGS21680); assay type: cell-based; conditions: 3 nM CGS21680, 5 h incubation
# human A2A receptor (A2AR), sequence (P29274 whole entry): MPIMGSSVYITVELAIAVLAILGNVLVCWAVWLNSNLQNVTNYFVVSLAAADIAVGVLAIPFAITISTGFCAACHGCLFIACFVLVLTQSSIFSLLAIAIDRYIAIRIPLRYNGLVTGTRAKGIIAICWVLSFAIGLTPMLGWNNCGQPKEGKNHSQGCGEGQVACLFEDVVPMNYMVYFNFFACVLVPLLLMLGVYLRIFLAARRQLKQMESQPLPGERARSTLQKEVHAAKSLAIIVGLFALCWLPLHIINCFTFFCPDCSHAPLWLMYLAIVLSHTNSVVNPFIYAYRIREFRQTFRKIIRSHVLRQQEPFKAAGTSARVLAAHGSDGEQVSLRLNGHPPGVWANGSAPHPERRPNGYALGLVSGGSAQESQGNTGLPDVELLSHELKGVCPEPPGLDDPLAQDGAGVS
# Procedure, shortened: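 HEK293 cells stably expressing A2AR with a CRE-luc2P reporter were seeded in 1% FBS with 1 U/mL adenosine deaminase. After 18 h, cells got 3 nM CGS21680 plus antagonist at 0.1–10000 nM for 5 h, followed by a luciferase readout. IC50 is relative to the 3 nM CGS21680 signal, set as 100%.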
# [3] = biological target: T2, human adenosine receptor A2A (A2AR) (Homo sapiens, UniProt P29274); assay: Adenosine receptor binding assay, radioligand competitive binding, [3H]CGS21680; conditions: membrane homogenates from HEK293 cells transfected with A2AR, 6 nM [3H]CGS21680
# T2 construct: host or cells: HEK293 cells (membrane homogenates)
# T2 sequence (P29274 whole entry): as above
# Description: as §1
SMILES,Ki [1] [nM],IC50 [2] [nM],Ki [3] [nM]
"CCCC(C(=O)N1CCN(c2ccc(OCCOC)cc2)CC1)n1ncc2c1nc(N)n1nc(-c3ccco3)nc21 (single isomer, unassigned) [Compound A5b, 2-(5-amino-2-(furan-2-yl)-7H-pyrazolo[4,3-e][1,2,4]triazolo[1,5-c]pyrimidin-7-yl)-1-(4-(4-(2-methoxyethoxy)phenyl)piperazin-1-yl)pentan-1-one]",310,50,6
"CCCCC(C(=O)N1CCN(c2ccc(OCCOC)cc2)CC1)n1ncc2c1nc(N)n1nc(-c3ccco3)nc21 (single isomer, unassigned) [Compound A10b, 2-(5-amino-2-(furan-2-yl)-7H-pyrazolo[4,3-e][1,2,4]triazolo[1,5-c]pyrimidin-7-yl)-1-(4-(4-(2-methoxyethoxy)phenyl)piperazin-1-yl)hexan-1-one]",260,143,5.6
"COCCOc1ccc(N2CCN(C(=O)C(c3ccccc3)n3ncc4c3nc(N)n3nc(-c5ccco5)nc43)CC2)cc1 (single isomer, unassigned) [Compound A13a]",190,26.9,6.2
"COCCOc1ccc(N2CCN(C(=O)C(CC(C)C)n3ncc4c3nc(N)n3nc(-c5ccco5)nc43)CC2)cc1 (single isomer, unassigned) [Compound A16a]",57,0.3,1.5
"COCCOc1ccc(N2CCN(C(=O)C(CC(C)C)n3ncc4c3nc(N)n3nc(-c5ccco5)nc43)CC2)cc1 (single isomer, unassigned) [Compound A16b]",770,96.4,15
"CC(C)CC(C(=O)N1CCN(c2ccc(F)cc2F)CC1)n1ncc2c1nc(N)n1nc(-c3ccco3)nc21 (single isomer, unassigned) [Compound A22b]",18,0.6,1.7
"CCCC(C(=O)N1CCN(c2ccc(OCCOC)cc2F)CC1)n1ncc2c1nc(N)n1nc(-c3ccco3)nc21 (single isomer, unassigned) [Compound A24a]",120,1,1.4
"CCCC(C(=O)N1CCN(c2ccc(OCCOC)cc2F)CC1)n1ncc2c1nc(N)n1nc(-c3ccco3)nc21 (single isomer, unassigned) [Compound A24b]",1200,78.8,8.5
"CCCC(C(=O)N1CCN(c2ccc(OCCN(C)C)cc2)CC1)n1ncc2c1nc(N)n1nc(-c3ccco3)nc21 (single isomer, unassigned) [Compound A39b]",79,3.6,2
"COCCOc1ccc(N2CCN(C(=O)C(c3ccccc3F)n3ncc4c3nc(N)n3nc(-c5ccco5)nc43)CC2)cc1 (single isomer, unassigned) [Compound A43b]",54,0.4,1.2
"COCCOc1ccc(N2CCN(CCn3ncc4c3nc(N)n3nc(-c5ccco5)nc43)CC2)cc1 [Preladenant, preladenant, reference compound]",337,,

# The remaining lines, values ahead:
Ki [1] [nM],IC50 [2] [nM],Ki [3] [nM],SMILES
,17,,"COCCOCCOc1ccc(N2CCN(C(=O)C(c3ccccc3)n3cc4c(nc(N)n5nc(-c6ccco6)nc45)n3)CC2)cc1 (stereo not drawn) [Compound C15, 2-(5-amino-2-(furan-2-yl)-8H-pyrazolo[4,3-e][1,2,4]triazolo[1,5-c]pyrimidin-8-yl)-1-(4-(4-(2-(2-methoxyethoxy)ethoxy)phenyl)piperazin-1-yl)-2-phenylethan-1-one]"
,4.9,,"COCCOc1ccc(N2CCN(C(=O)C(C3CC3)n3cc4c(nc(N)n5nc(-c6ccco6)nc45)n3)CC2)cc1 (stereo not drawn) [Compound C16, 2-(5-amino-2-(furan-2-yl)-8H-pyrazolo[4,3-e][1,2,4]triazolo[1,5-c]pyrimidin-8-yl)-2-cyclopropyl-1-(4-(4-(2-methoxyethoxy)phenyl)piperazin-1-yl)ethan-1-one]"
,88.4,,"COCCOc1ccc(N2CCN(C(=O)C(CC(C)C)n3cc4c(nc(N)n5nc(-c6ccco6)nc45)n3)CC2)cc1 (stereo not drawn) [Compound C17, 2-(5-amino-2-(furan-2-yl)-8H-pyrazolo[4,3-e][1,2,4]triazolo[1,5-c]pyrimidin-8-yl)-1-(4-(4-(2-methoxyethoxy)phenyl)piperazin-1-yl)-4-methylpentan-1-one]"
,90.2,,"COCCOCCOc1ccc(N2CCN(C(=O)C(CC(C)C)n3cc4c(nc(N)n5nc(-c6ccco6)nc45)n3)CC2)cc1 (stereo not drawn) [Compound C18, 2-(5-amino-2-(furan-2-yl)-8H-pyrazolo[4,3-e][1,2,4]triazolo[1,5-c]pyrimidin-8-yl)-1-(4-(4-(2-(2-methoxyethoxy)ethoxy)phenyl)piperazin-1-yl)-4-methylpentan-1-one]"
,46.3,,"CC(C(=O)N1CCN(c2ccc(OCCN(C)C)cc2)CC1)n1cc2c(nc(N)n3nc(-c4ccco4)nc23)n1 (stereo not drawn) [Compound C19, 2-(5-amino-2-(furan-2-yl)-8H-pyrazolo[4,3-e][1,2,4]triazolo[1,5-c]pyrimidin-8-yl)-1-(4-(4-(2-(dimethylamino)ethoxy)phenyl)piperazin-1-yl)propan-1-one]"
,2070,,"COCCOc1ccc(N2CCN(C(=O)C(Cc3ccccc3)n3cc4c(nc(N)n5nc(-c6ccco6)nc45)n3)CC2)cc1 (stereo not drawn) [Compound C20, 2-(5-amino-2-(furan-2-yl)-8H-pyrazolo[4,3-e][1,2,4]triazolo[1,5-c]pyrimidin-8-yl)-1-(4-(4-(2-methoxyethoxy)phenyl)piperazin-1-yl)-3-phenylpropan-1-one]"
,100,,"CCCC(C(=O)N1CCN(c2ccc(F)cc2F)CC1)n1cc2c(nc(N)n3nc(-c4ccco4)nc23)n1 (stereo not drawn) [Compound C21, 2-(5-amino-2-(furan-2-yl)-8H-pyrazolo[4,3-e][1,2,4]triazolo[1,5-c]pyrimidin-8-yl)-1-(4-(2,4-difluorophenyl)piperazin-1-yl)pentan-1-one]"
,12.8,,"COCCOCCOc1ccc(N2CCN(C(=O)C(C3CC3)n3cc4c(nc(N)n5nc(-c6ccco6)nc45)n3)CC2)cc1 (stereo not drawn) [Compound C22, 2-(5-amino-2-(furan-2-yl)-8H-pyrazolo[4,3-e][1,2,4]triazolo[1,5-c]pyrimidin-8-yl)-2-cyclopropyl-1-(4-(4-(2-(2-methoxyethoxy)ethoxy)phenyl)piperazin-1-yl)ethan-1-one]"
,69.6,,"CC(C)CC(C(=O)N1CCN(c2ccc(F)cc2F)CC1)n1cc2c(nc(N)n3nc(-c4ccco4)nc23)n1 (stereo not drawn) [Compound C23, 2-(5-amino-2-(furan-2-yl)-8H-pyrazolo[4,3-e][1,2,4]triazolo[1,5-c]pyrimidin-8-yl)-1-(4-(2,4-difluorophenyl)piperazin-1-yl)-4-methylpentan-1-one]"
,35.5,,"CNCCOc1ccc(N2CCN(C(=O)C(C)n3cc4c(nc(N)n5nc(-c6ccco6)nc45)n3)CC2)cc1 (stereo not drawn) [Compound C24, 2-(5-amino-2-(furan-2-yl)-8H-pyrazolo[4,3-e][1,2,4]triazolo[1,5-c]pyrimidin-8-yl)-1-(4-(4-(2-(methylamino)ethoxy)phenyl)piperazin-1-yl)propan-1-one]"
,21.7,,"COCCOc1ccc(N2CCN(C(=O)C(C)(c3ccccc3)n3cc4c(nc(N)n5nc(-c6ccco6)nc45)n3)CC2)cc1 (stereo not drawn) [Compound C25, 2-(5-amino-2-(furan-2-yl)-8H-pyrazolo[4,3-e][1,2,4]triazolo[1,5-c]pyrimidin-8-yl)-1-(4-(4-(2-methoxyethoxy)phenyl)piperazin-1-yl)-2-phenylpropan-1-one]"

# — patent publication US20210300936A1, “PYRAZOLOTRIAZOLOPYRIMIDINE DERIVATIVES AS A2A RECEPTOR ANTAGONIST” (BEIGENE, LTD., priority 2018, published 2021)
